20 molecules from patent US8067445B2, “N,N-disubstituted aminoalkylbiphenyl antagonists of prostaglandin D2 receptors” (Panmira Pharmaceuticals, LLC, priority 2008, dated 2011) can be followed below.

Assay [1] addresses T1, human DP1 receptor (Homo sapiens, UniProt Q13258).
T1 construct: tissue Biological Specialty Corporation; host or cells: human platelet membranes
T1 sequence (Q13258 1-359): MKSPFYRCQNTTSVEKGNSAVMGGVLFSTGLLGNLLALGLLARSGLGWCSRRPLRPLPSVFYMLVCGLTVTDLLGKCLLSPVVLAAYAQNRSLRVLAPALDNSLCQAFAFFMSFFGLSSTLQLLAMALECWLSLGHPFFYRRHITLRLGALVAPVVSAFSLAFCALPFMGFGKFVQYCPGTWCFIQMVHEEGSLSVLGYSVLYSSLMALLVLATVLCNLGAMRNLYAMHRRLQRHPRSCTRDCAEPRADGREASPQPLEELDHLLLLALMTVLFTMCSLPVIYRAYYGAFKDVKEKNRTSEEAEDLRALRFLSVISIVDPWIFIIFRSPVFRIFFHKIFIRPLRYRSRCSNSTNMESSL
The assay can be described thus: DP1 radioligand binding assay ([3H]BWA868C, platelet membranes). As to conditions: [3H]BWA868C binding, human platelet membranes; read-out: hDP1. In a few lines: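 Human platelet membranes (20 μg protein/well) incubated 60 min at room temperature with 2 nM [3H]BWA868C and compound in 50 mM Hepes, 10 mM MnCl2, 1 mM EDTA, pH 7.4, ± 0.2% human serum albumin. Bound radioactivity measured after filtration; nonspecific binding defined with 10 μM BWA868C; IC50 from titration curves.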

For assay [2], the target named is T2, recombinant human CRTH2 receptor (Homo sapiens, UniProt Q9Y5Y4).
T2 construct: expressed in transfected cells
T2 sequence (Q9Y5Y4 1-395): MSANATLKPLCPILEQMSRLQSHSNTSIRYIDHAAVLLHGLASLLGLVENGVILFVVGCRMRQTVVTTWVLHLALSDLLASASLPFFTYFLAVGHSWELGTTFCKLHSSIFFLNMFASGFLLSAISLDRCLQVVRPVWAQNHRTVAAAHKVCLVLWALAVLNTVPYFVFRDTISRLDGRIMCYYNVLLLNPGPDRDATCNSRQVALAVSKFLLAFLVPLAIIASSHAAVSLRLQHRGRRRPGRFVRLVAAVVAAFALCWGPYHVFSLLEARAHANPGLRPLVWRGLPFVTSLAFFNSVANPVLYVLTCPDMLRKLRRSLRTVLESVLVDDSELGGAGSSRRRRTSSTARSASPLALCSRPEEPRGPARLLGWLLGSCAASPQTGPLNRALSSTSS
The assay can be described thus: GTPγS binding assay. Type of assay: biochemical. The conditions noted are these: +HSA (0.2% human serum albumin), 80 nM PGD2, CHO cell membranes; read-out: hDP2 GTPγS μM (+HSA). How it is done: The ability of a compound to inhibit binding of GTP to DP2 is assessed via a membrane GTPγS assay. CHO cells stably expressing the recombinant human CRTH2 receptor are resuspended in 10 mM Hepes, 7.4 containing 1 mM DTT, lysed and centrifuged at 75,000×g to pellet the membranes. The membranes are resuspended in 10 mM Hepes, 7.4 containing 1 mM DTT and 10% glycerol. […] The reactions are terminated by rapid filtration through Whatman GF/B glass fibre filter plates. The filter plates are washed 3 times with 1 ml cold Assay Buffer and dried. Scintillant is then added to the plates and the radioactivity retained on the filters is determined on a Packard TopCount (Perkin Elmer). Specific binding is determined as total radioactive binding minus non-specific binding in the absence of the ligand (80 nM PGD2). IC50s were determined using Graphpad prism analysis of drug titration curves.
In general terms: GTPγS resists hydrolysis and so accumulates on activated G proteins.

The target of assay [3] is T3, human DP2 receptor (Homo sapiens, UniProt Q9Y5Y4).
T3 construct: expressed in transfected cells
T3 sequence (Q9Y5Y4 1-395): T2 sequence (Q9Y5Y4 1-395)
The assay can be described thus: DP2/CRTH2 radioligand binding assay ([3H]PGD2). The conditions noted are these: [3H]PGD2 binding, membranes of HEK293 cells expressing human DP2; read-out: hDP2. In a few lines:
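Membranes from HEK293 cells stably expressing recombinant human DP2 incubated 60 min at room temperature with 1 nM [3H]PGD2 and compound in pH 7.4 Hepes/MnCl2/EDTA buffer, ± 0.2% human serum albumin. Bound radioactivity measured after filtration; non-specific binding defined with 10 μM PGD2. IC50 from titration curves.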

Each structure is given as a SMILES string.

Turning to `CCN(Cc1cc(C(F)(F)F)ccc1-c1cc(CC(=O)O)ccc1OC)/C(=N/C#N)NCC1CCCCC1` [Compound 1-112, [2′-(N′-Cyano-N″-cyclohexylmethyl-N-ethyl-guanidinomethyl)-6-methoxy-4′-trifluoromethyl-biphenyl-3-yl]-acetic acid], the IC50 in assay [1] was 1 to 30 µM; in assay [2], less than 0.3 µM; in assay [3], less than 0.3 µM.

As to `COc1ccc(CC(=O)O)cc1-c1ccc(C(F)(F)F)cc1CN(C(C)=O)c1ccccc1` [Compound 1-18, {2′-[(Acetyl-phenyl-amino)-methyl]-6-methoxy-4′-trifluoromethyl-biphenyl-3-yl}-acetic acid], the IC50 in assay [1] was 1 to 30 µM; in assay [2], 0.3 to 1 µM; in assay [3], 0.3 to 1 µM.

`COc1ccc(CC(=O)O)cc1-c1ccc(C(F)(F)F)cc1CN(CC(=O)O)C(C)=O` [Compound 1-8, {2′-[(Acetyl-carboxymethyl-amino)-methyl]-6-methoxy-4′-trifluoromethyl-biphenyl-3-yl}-acetic acid]: the IC50 in assay [1], in assay [2] and in assay [3] was 1 to 30 µM each time.

As for `CCN(Cc1cc(C(F)(F)F)ccc1-c1cc(CC(=O)O)ccc1OCC1CC1)C(=O)OCc1ccccc1` [Compound 1-130], the IC50 in assay [1] was 1 to 30 µM; in assay [2], less than 0.3 µM; in assay [3], less than 0.3 µM.

Take `CCN(Cc1cc(C(F)(F)F)ccc1-c1cc(CC(=O)O)ccc1OC)C(=O)C1(c2ccc(Cl)cc2Cl)CC1` [Compound 1-131, [2′-({[1-(2,4-Dichloro-phenyl)-cyclopropanecarbonyl]-ethyl-amino}-methyl)-6-methoxy-4′-trifluoromethyl-biphenyl-3-yl]-acetic acid]: the IC50 in assay [1] was 1 to 30 µM; in assay [2], less than 0.3 µM; in assay [3], less than 0.3 µM.

For `CCN(Cc1cc(C(F)(F)F)ccc1-c1cc(Cl)cc(CC(=O)O)c1)C(=O)OCc1ccccc1` [Compound 1-108, {2′-[(Benzyloxycarbonyl-ethyl-amino)-methyl]-5-chloro-4′-trifluoromethyl-biphenyl-3-yl}-acetic acid], the IC50 in assay [1] was 1 to 30 µM; in assay [2], less than 0.3 µM; in assay [3] it was less than 0.3 µM.

In the case of `COc1ccc(CC(=O)O)cc1-c1ccc(C(F)(F)F)cc1CN(Cc1ccccc1)C(C)=O` [Compound 1-19, {2′-[(Acetyl-benzyl-amino)-methyl]-6-methoxy-4′-trifluoromethyl-biphenyl-3-yl}-acetic acid], the IC50 is 1 to 30 µM in assay [1], less than 0.3 µM in assay [2] and less than 0.3 µM in assay [3].

For `CCN(Cc1cc(C(F)(F)F)ccc1-c1ccc(Cl)c(CC(=O)O)c1)C(=O)OCc1ccccc1` [Compound 1-125, {2′-[(Benzyloxycarbonyl-ethyl-amino)-methyl]-4-chloro-4′-trifluoromethyl-biphenyl-3-yl}-acetic acid], the IC50 in assay [1] was 0.3 to 1 µM; in assay [2] it was 0.3 to 1 µM; in assay [3] it was less than 0.3 µM.

Regarding `CCN(Cc1cc(C(F)(F)F)ccc1-c1cc(C(C)C(=O)O)ccc1OC)C(C)=O` (stereo not drawn) [Compound 1-21, 2-{2′-[(Acetyl-ethyl-amino)-methyl]-6-methoxy-4′-trifluoromethyl-biphenyl-3-yl}-propionic acid], the values for the IC50 in assay [1], in assay [2] and in assay [3] were 1 to 30 µM, less than 0.3 µM and less than 0.3 µM, respectively.

Consider `CCN(Cc1cc(C(F)(F)F)ccc1-c1cc(CC(=O)O)ccc1OCc1ccccc1)C(=O)OCc1ccccc1` [Compound 1-128, {6-Benzyloxy-2′-[(benzyloxycarbonyl-ethyl-amino)-methyl]-4′-trifluoromethyl-biphenyl-3-yl}-acetic acid], for which the IC50 in assay [1] was 0.3 to 1 µM; in assay [2], less than 0.3 µM; in assay [3] it was less than 0.3 µM.

For `COCCN(Cc1cc(C(F)(F)F)ccc1-c1cc(CC(=O)O)ccc1OC)C(C)=O` [Compound 1-6, (2′-{[Acetyl-(2-methoxy-ethyl)-amino]-methyl}-6-methoxy-4′-trifluoromethyl-biphenyl-3-yl)-acetic acid], the values for the IC50 in assay [1], in assay [2] and in assay [3] were 1 to 30 µM, less than 0.3 µM and less than 0.3 µM, respectively.

Regarding `CCN(Cc1cc(C(F)(F)F)ccc1-c1cc(CC(=O)O)ccc1OC)/C(=N/C#N)NCC(C)(C)C` [Compound 1-113, {2′-[N′-Cyano-N″-(2,2-dimethyl-propyl)-N-ethyl-guanidinomethyl]-6-methoxy-4′-trifluoromethyl-biphenyl-3-yl}-acetic acid], the IC50 in assay [1] was 1 to 30 µM; in assay [2], less than 0.3 µM; in assay [3], less than 0.3 µM.

In the case of `CCN(Cc1cc(C(F)(F)F)ccc1-c1cc(CC(=O)O)cc(C(F)(F)F)c1)C(=O)C1CC1` [Compound 1-136, {2′-[(Cyclopropanecarbonyl-ethyl-amino)-methyl]-5,4′-bis-trifluoromethyl-biphenyl-3-yl}-acetic acid], the IC50 was 1 to 30 µM in assay [1], less than 0.3 µM in assay [2] and less than 0.3 µM in assay [3].

On to `CCN(Cc1cc(C(F)(F)F)ccc1-c1cc(CC(=O)O)ccc1OC)C(=O)Nc1ccccc1Br` [Compound 1-47, {2′-[3-(2-Bromo-phenyl)-1-ethyl-ureidomethyl]-6-methoxy-4′-trifluoromethyl-biphenyl-3-yl}-acetic acid], for which the IC50 in assay [1] is 1 to 30 µM; in assay [2], less than 0.3 µM; in assay [3] it was less than 0.3 µM.

As to `CCN(Cc1cc(C(F)(F)F)ccc1-c1cc(C(C)C(=O)O)ccc1OC)C(=O)OCc1ccccc1` (stereo not drawn) [Compound 1-98, 2-{2′-[(Benzyloxycarbonyl-ethyl-amino)-methyl]-6-methoxy-4′-trifluoromethyl-biphenyl-3-yl}-propionic acid], the IC50 in assay [1] was 1 to 30 µM; in assay [2] it was less than 0.3 µM; in assay [3], less than 0.3 µM.

Consider `COC(=O)N(Cc1ccccc1)Cc1cc(C(F)(F)F)ccc1-c1cc(CC(=O)O)ccc1OC` [Compound 1-24, {2′-[(Benzyl-methoxycarbonyl-amino)-methyl]-6-methoxy-4′-trifluoromethyl-biphenyl-3-yl}-acetic acid], for which the results for the IC50 in assay [1], in assay [2] and in assay [3] were 1 to 30 µM, less than 0.3 µM and less than 0.3 µM, respectively.

Consider `COC(=O)N(CCc1ccccc1)Cc1cc(C(F)(F)F)ccc1-c1cc(CC(=O)O)ccc1OC` [Compound 1-25, {6-Methoxy-2′-[(methoxycarbonyl-phenethyl-amino)-methyl]-4′-trifluoromethyl-biphenyl-3-yl}-acetic acid], for which the IC50 is 1 to 30 µM in assay [1], less than 0.3 µM in assay [2] and less than 0.3 µM in assay [3].

Consider `CCN(Cc1cccc(OC)c1-c1cccc(CC(=O)O)c1)C(=O)OCc1ccccc1` [Compound 1-122, {2′-[(Benzyloxycarbonyl-ethyl-amino)-methyl]-6′-methoxy-biphenyl-3-yl}-acetic acid], for which the IC50 was 0.3 to 1 µM in assay [1], 1 to 30 µM in assay [2] and less than 0.3 µM in assay [3].

On to `COc1ccc(CC(=O)O)cc1-c1ccc(C(F)(F)F)cc1CN(CC(N)=O)C(C)=O` [Compound 1-9, {2′-[(Acetyl-carbamoylmethyl-amino)-methyl]-6-methoxy-4′-trifluoromethyl-biphenyl-3-yl}-acetic acid], for which the IC50 was 1 to 30 µM in assay [1], 0.3 to 1 µM in assay [2] and 0.3 to 1 µM in assay [3].

Regarding `CCN(Cc1cc(C(F)(F)F)ccc1-c1ccc(OC)c(CC(=O)O)c1)C(=O)OCc1ccccc1` [Compound 1-107, {2′-[(Benzyloxycarbonyl-ethyl-amino)-methyl]-4-methoxy-4′-trifluoromethyl-biphenyl-3-yl}-acetic acid], the IC50 in assay [1] was 1 to 30 µM; in assay [2], less than 0.3 µM; in assay [3] it was less than 0.3 µM.
